The values that follow come from ChEMBL document CHEMBL1123073, “Conjugates of catecholamines. 6. Synthesis and beta-adrenergic activity of N-(hydroxyalkyl)catecholamine derivatives” (1985).

This assay is described as follows: Relative potency was determined in vitro by measuring the accumulation of cyclic AMP in SV-49 mouse lymphoma cells relative to dl-isoproterenol. The class given is functional.
`O=P(O)(O)O.OCCCNCC(O)c1ccc(O)c(O)c1` (centres undefined) registered a Relative potency of 0.0058. `Cc1ccc(C(=O)OCCCC(C)NCC(O)c2ccc(O)c(O)c2)cc1.O=P(O)(O)O` (centres undefined) displayed a Relative potency of 0.0063. The compound `CC(CCCOC(=O)NC1CCCCC1)NCC(O)c1ccc(O)c(O)c1.Cl` (centres undefined) registered a Relative potency of 29. In the case of `Cc1ccc(NC(=O)OCCCCC(C)NCC(O)c2ccc(O)c(O)c2)cc1.O=P(O)(O)O` (centres undefined) it was 1.3; in that of `Cc1ccc(C(=O)NC(=O)OCCCC(C)NCC(O)c2ccc(O)c(O)c2)cc1.Cl` (centres undefined), 73; in that of `CC(CCO)NCC(O)c1ccc(O)c(O)c1.O=P(O)(O)O` (centres undefined), 0.012.

In the case of `CCCCNC(=O)OCCCC(C)NCC(O)c1ccc(O)c(O)c1.O=P(O)(O)O` (centres undefined), the Relative potency is reported as 190.

Take `Cc1ccc(NC(=O)OCCCC(C)NCC(O)c2ccc(O)c(O)c2)cc1.O=P(O)(O)O` (centres undefined): the Relative potency was 0.092. The compound `CC(CCCO)NCC(O)c1ccc(O)c(O)c1.O=P(O)(O)O` (centres undefined) came in with a Relative potency of 1.3.
